Measurements: US9649271B2, “Hair thickening compositions and methods of use” (The Procter & Gamble Company, priority 2013, dated 2017)

Columns and labels:
[1] = Measurement of average thickness increase of single hair fibers
Method: The fibers are then removed and allowed to equilibrate and dry overnight. • 4) The next day, the fibers are imaged and measured for a final reading. For each experiment, untreated control and product treatment controls are ran, and at least 5 fibers are measured per treatment. • 5) In order to measure increase in thickness as a function of treatment, the […]. The average thickness increase is reported in the Table above, with measurements reported in micrometers. Viscosity Test Method

[2] = Viscosity test method (cone and plate viscometer/rheometer); format: physicochemical; settings: hair care composition (Example 1 formula) with 0.15% resorcinol of the given type, 1.89% Sepigel
Description: The viscosity of the hair care composition may be determined by a cone and plate viscometer/rheometer which measures the viscous drag resulting from the sample material contained in the gap between a rotating cone and a stationary plate. The geometry of the cone and plate may be such that the entire sample is subjected to a uniform shear rate.

Row | SMILES | average thickness increase compared to Resorcinol Type 2 and Type 3 (in words) ([1]; Example 1 formula, different types of resorcinol substituted) | Viscosity [2] [cps] | Average Thickness Increase ([1]; Example 1 formula with 0.15% resorcinol of the given type, 1.89% Sepigel, fibers treated 10 minutes, dried overnight, at least 5 fibers per treatment) [μm]
1 | Oc1ccc(Cl)c(O)c1 [Resorcinol 1, 4-Chlororesorcinol] | measurable average thickness increase |  | 
2 | Oc1cccc(O)c1 [Resorcinol 3, 1,3-Dihydroxybenzene] |  | 15958 | 3.5
